Experimental data reported in ChEMBL document CHEMBL3232961, “Synthesis and evaluation of cyclohexane carboxylic acid head group containing isoxazole and thiazole analogs as DGAT1 inhibitors” (Eur J Med Chem, 2014).

How the values were obtained:
[1] = system: Mus musculus; assay: Reduction of plasma triglyceride AUC (0 to 4 hrs) in fasted Swiss mouse at 3 mg/kg, po administered 1 hr followed by bolus dose of olive oil by acute fat tolerance test relative to vehicle-treated control; format: functional; parameters: scale not given: the % may be the effect or the level left
[2] = target: T1, Diacylglycerol O-acyltransferase 1 (Homo sapiens, UniProt O75907); assay: Inhibition of human DGAT1 using 1,2-diacylglycerol/[14C]-oleoyl CoA as substrate assessed as [14C]-triglyceride formation after 10 mins by scintillation counting analysis
T1 sequence (O75907 whole entry): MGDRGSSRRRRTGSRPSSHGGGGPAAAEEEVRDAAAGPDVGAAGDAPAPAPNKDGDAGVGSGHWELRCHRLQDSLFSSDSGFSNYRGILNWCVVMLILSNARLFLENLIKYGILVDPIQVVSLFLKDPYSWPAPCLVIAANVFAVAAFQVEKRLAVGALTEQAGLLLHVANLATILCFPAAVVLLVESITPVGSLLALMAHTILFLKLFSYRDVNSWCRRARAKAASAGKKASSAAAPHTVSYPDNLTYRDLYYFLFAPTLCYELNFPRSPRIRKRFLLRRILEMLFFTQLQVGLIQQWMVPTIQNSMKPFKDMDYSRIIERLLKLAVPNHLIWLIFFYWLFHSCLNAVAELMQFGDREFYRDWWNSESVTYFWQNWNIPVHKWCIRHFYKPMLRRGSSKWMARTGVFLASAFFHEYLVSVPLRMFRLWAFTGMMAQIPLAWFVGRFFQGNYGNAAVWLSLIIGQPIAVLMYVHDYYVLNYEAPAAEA

IC50 [2] [nM]	SMILES	Activity [1] [%]
	O=C(Nc1ccc(-c2cnc(C(=O)N[C@H]3CC[C@H](C(=O)O)CC3)s2)cc1)Nc1ccccc1F	112
114	O=C(Nc1ccc(C2CCN(C(=O)[C@H]3CC[C@H](C(=O)O)CC3)CC2)cc1)c1nc(-c2ccccc2)oc1C(F)(F)F	89
